Experimental data taken from PMC10813393 (Biomolecules, 2023).
Where two headings read alike, the source gives them in different places.

Tests used:
[1] = test system: α-SARS-CoV-2 spike pseudotyped virus particles; type: cell-based; conditions: luciferase 72 h post-transduction
[2] = test system: o-SARS-CoV-2 spike pseudotyped virus particles (BA.2 lineage); type: cell-based; conditions: luciferase 72 h post-transduction
[3] = cell-pretreatment protocol: VERO cells with FA 20 μM or L7OG 5 μM for 2 h

O=C(O)[C@H]1O[C@@H](Oc2cc(O)c3c(=O)cc(-c4ccc(O)c(O)c4)oc3c2)[C@H](O)[C@@H](O)[C@@H]1O [Compound L7OG, luteolin-7-O-glucuronide]
entry of α-SARS-CoV-2 pseudovirus (in words) [1, 3]: neither L7OG nor FA inhibited the entry | entry of o-SARS-CoV-2 pseudovirus (in words) [2, 3]: neither L7OG nor FA inhibited the entry

Nc1nc(=O)c2nc(CNc3ccc(C(=O)N[C@@H](CCC(=O)O)C(=O)O)cc3)cnc2[nH]1 [FA, folic acid, reference compound]
entry of α-SARS-CoV-2 pseudovirus (in words) ([1]; […], VERO cells): blocked the entry | entry of α-SARS-CoV-2 pseudovirus (in words) [1, 3]: neither L7OG nor FA inhibited the entry | entry of o-SARS-CoV-2 pseudovirus (in words) ([2]; […], VERO cells): blocked the entry | entry of o-SARS-CoV-2 pseudovirus (in words) [2, 3]: neither L7OG nor FA inhibited the entry
